Measurements taken from US20110224221A1, “HEMATOPOIETIC PROTECTION AGAINST IONIZING RADIATION USING SELECTIVE CYCLIN-DEPENDENT KINASE 4/6 INHIBITORS” (priority 2008, published 2011).
Entries after “also recorded” stand apart in the source; their conditions may differ.

Key:
[1] = system: RB-null melanoma cell line A2058; experiment: Clonogenic assay after IR, A2058; type: cell-based, human; settings: 100 nM, IR 0-9 Gy
Method: Data plotted is the area/cell ratio of PD0332991 treated cells to dimethyl sulfoxide (DMSO) treated cells. Error bars show standard error of the mean.
Clonogenic Assay: The clonogenic assay was performed as previously described (see Franken et al., Nature protocols, 1, 2315-1319 (2006)) with cells plated in a six-well plate at least 6 hours prior to treatment with CDK inhibitor for 24 hours, […] Cells were grown for 16 days, washed, fixed, and stained with crystal violet. Plates were then imaged using an Odyssey infrared scanner (Li-Cor Biosciences, Lincoln, Nebr., United States of America) and quantified using the accompanying software.

[2] = system: mice exposed to total body irradiation; experiment: Survival after total body irradiation (TBI); type: in vivo
Excerpt: For TBI experiments, mice were irradiated using a ^137Cs source (AECL Gammacell 40 Irradiator, Atomic Energy of Canada Ltd, Mississauga, Ontario, Canada). Delivered doses were at or near the empirically determined LD90 of 7.5 Gy, consistent with prior studies. See Na Nakorn et al., J. Clin. Invest., 109, 1579-1585 (2002); Herodin et al., Blood, 101, 2609-2616 (2003); Uckun et al., Blood, 75, 638-645 (1990); and Wang et al., Proc. Natl. Acad. Sci., USA, 94, 14590-14595 (1997). Peripheral blood was collected using a tail vein nick for complete blood cells (CBCs) and analyzed with a HemaTrue analyzer (Heska Co., Loveland, Colo., United States of America).
Adult female C57Bl/6 mice were exposed to 6.5, 7.5, or 8.5 Gy with or without PD0332991 treatment and followed for 40 days post-TBI. The LD90 for IR was determined to be about 7.5 Gy. […] See FIGS. 14A for C3H and FIG. 2E for FVB/n. […] It appears that PQ resulting from transient CDK4/6 inhibition around the time of TBI enhances radioresistance in vivo.
More particularly, animals were given a CDK4/6 inhibitor at different times relative to TBI at the LD90. As radioprotection was observed when animals were treated with two doses pre- and one dose post-TBI (see FIGS. 13A-13B), further studies were undertaken to determine which of these doses was most important for radioprotection. Without being bound to any one theory, it appeared that most of the benefit of the treatment schedule was associated PD 0332991 treatment immediately prior to or contemporaneous with TBI. […] Although there are a few known compounds that protect from radiotoxicity when administered prior to IR (i.e. “radioprotectants”) (see Burdelya et al., Science, 320, 226-230 (2008); and Weiss and Landauer, Int J. Radiat. Biol., 85, 539-573 (2009)), previous to the presently disclosed subject matter, no known hematologic “radiomitigants” (i.e., compounds that reduce hematotoxicity when administered many hours after an exposure to TBI) are believed to have been reported.

[3] = 8.5 Gy TBI, single dose four hours prior to IR

With `CC(=O)c1c(C)c2cnc(Nc3ccc(N4CCNCC4)cn3)nc2n(C2CCCC2)c1=O` [PD0332991, 6-acetyl-8-cyclopentyl-5-methyl-2-(5-piperazin-1-yl-pyridin-2-ylamino)-8H-pyrido-[2,3-d]-pyrimidin-7-one] the “clonogenic cell survival after IR (area/cell ratio relative to DMSO)” value [1] was “not in CDK4/6-independent cells”, the survival ([2]; 6.5 Gy) was “All mice survived” and the survival ([2]; 7.5 Gy, C57Bl/6, followed 40 days post-TBI) was “all treated mice survived”. The survival ([2]; 7.5 Gy, multiple doses around IR, within 40 days) was ~100%, the survival ([2]; 7.5 Gy, single dose 4 hours prior to IR) was “Enhanced survival; also recorded: survival similar to animals treated on the multi-dose” and the survival ([2]; 7.5 Gy, single dose 20 hours after TBI) was “significantly enhanced”. The survival ([2]; 7.5 Gy, single time 0 dose) was “survival similar to animals treated on the multi-dose”, the median survival [2, 3] was 19 days and the term survival [2, 3] was 13%. The term survival ([2]; 8.5 Gy TBI, single dose four hours prior to IR, listed as PD 0332991) was “about 30%”.
